Laboratory results: US20090042901A1, “AGENT FOR PREVENTION/THERAPY OF DISEASE CAUSED BY KERATINOCYTE GROWTH” (KOWA CO., LTD., priority 2005, published 2009)
Where two headings read alike, the source gives them in different places.

What was measured:
VCAM-1 expression = VCAM-1 expression inhibitory activity in TNFα-stimulated HUVEC; assay type: cell-based; details: Homo sapiens, TNFα 10 ng/mL, 4.5 hours, read-out: VCAM-1 expression inhibitory action IC50
Method: Human umbilical vein endothelial cells (HUVEC) (Sanko Junyaku Co., Ltd.) were suspended in EGM-2 medium (Sanko Junyaku Co., Ltd.) at a concentration of 5×10^4 cells/mL, and were inoculated on a 96-well plate (Corning Corp.) at a concentration of 1×10^4 cells/well. The cells were cultured at 37° C. in the presence of 5% CO2 for 4 days, then 100 μL of the medium was removed, and 25 μL each of the substance under test and TNFα (final concentration 10 ng/mL, PeproTech, Inc.) were added. After incubating the cells for 4.5 hours at 37° C., the medium was removed, and each well was washed once with 100 μL of Hank's Balanced Salt Solution containing 0.5% bovine serum albumin and 0.02% sodiumazide (HBSS/BSA). Subsequently, 30 μL of a blocking solution (1% whole goat serum (ICN Biomedicals, Inc.)/HBSS/BSA) was added, and the plate was left to stand for 30 minutes on the ice. After washing once with 100 μL of HBSS/BSA, 1 μg/mL of anti-human VCAM-1 antibody (Genzyme-Techne, Inc.) was added to each well in an amount of 30 μL, and the plate was incubated on the ice for 1 hour. After washing three times with HBSS/BSA (200 μL), peroxidase-labeled goat anti-mouse IgG antibody (Pierce Biotechnology, Inc.) diluted 2000-folds with HBSS/BSA was added in an amount of 30 μL/well, and was allowed to react for 1 hour. After washing 5 times with HBSS/BSA as described above, 100 μL/well of TMB substrate (Moss Inc.) was added, an enzymatic reaction was allowed to proceed for 15 to 30 minutes at 25° C., and then 1 mol/L sulfuric acid was added in an amount of 25 μL/well to stop the reaction. The absorbance at 492 nm was measured using a reference wavelength of 620 nm and using a 96-well plate spectrophotometer, Multiscan MS-UV (Labsystems, Inc.). The inhibitory rate was determined by taking the absorbance for the case of TNFα stimulation without drug addition, as 100%. In addition, the measurement was performed three times for each group.

[1] = tested on: Normal human keratinocytes (newborn infant foreskin-derived epidermal keratinocyte); experiment: Growth of normal human keratinocytes (H3-thymidine uptake); assay type: cell-based; details: for IC50: Homo sapiens, Keratinocyte, H3-thymidine uptake, 22 h + 2 h culture, 0.01 to 10 μM, read-out: Human keratinocyte growth inhibition IC50
Method: Normal human keratinocytes (purchased from Kurabo Industries, Ltd.) were inoculated on a 48-well plate (Coster Corp.) at a concentration of 4×10^4 cells/well/500 μL, and were cultured overnight at 37° C. in the presence of 5% CO2. A compound of the present invention or activated vitamin D3 (Calcitriol; Wako Pure Chemical Industries, Ltd.) was added to a final concentration of 0.01 to 10 μM, and the cells were cultured for 22 hours. H^3-thymidine (Amersham plc.) was added, and the cells were incubated for another 2 hours. Subsequently, the cells were recovered after washing, and in a liquid scintillation counter (Packard Instrument Company, Inc.), the radioactivity taken up by the cells was measured. The results are presented as a ratio of the radioactivity taken up by the cells upon drug addition, with respect to the radioactivity of the case with no drug addition (Control), which was taken as 100%. The IC50 value, which is the concentration of the drug for inhibiting the uptake of radioactivity to 50% with respect to the control, was lower in the case of any of the Compounds 1 to 8 than in the case of Calcitriol.

[2] = tested on: TPA-stimulated SKH1-hrBR-Hairless mouse; experiment: Skin thickening in TPA-stimulated hairless mouse; assay type: in vivo; details: dorsal application of 50 μL after 10 nmol TPA, measured after 24 hours (FIG. 1)
Method: As an animal model for psoriasis, hairless mice stimulated with 12-O-tetradecanoylphorbol-13-acetate (hereinafter, referred to as TPA) were used (Sato, et al., Dermatology (1996) 192, 233-238). That is, on the dorsal side of a 7 to 8 weeks old female SKH1-hrBR-Hairless mouse (Charles River Laboratories Japan, Inc.), 10 nmol of TPA dissolved in acetone was applied, and then 50 μL of either the drug dissolved in acetone or Bonalfa (registered trademark) High (Teijin Pharma, Ltd.) was applied. After 24 hours, the thickness of the skin on the dorsal side was measured using a dial thickness gauge (Peacock G-1A, Ozaki MFG. Co., Ltd.), and the difference between the measured skin thickness and the skin thickness measured before TPA application was determined. The thickening of the skin thickness was suppressed by the application of the activated vitamin D3 preparation (Bonalfa (registered trademark) High). Also, the thickening of the skin thickness was suppressed by the application of the Compound 4.

| SMILES | IC50 (VCAM-1 expression) [nM] | IC50 ([1]; 24 h) [nM] | Thickening of the skin thickness [2] | IC50 [1] [nM] | Efficacy relative to Calcitriol (keratinocyte growth inhibition IC50) ([1]; compared with Calcitriol) |
| --- | --- | --- | --- | --- | --- |
| COc1cc(-c2cncc(CN(c3ccc(SC)cc3)C3CCN(Cc4ccnc(-c5cc(OC)c(OC)c(OC)c5)c4)CC3)c2)cc(OC)c1OC [Compound 2] | 5 | 44 | – | – | – |
| COc1cc(OC)cc(N(Cc2ccnc(-c3cc(OC)c(OC)c(OC)c3)c2)C2CCN(Cc3ccnc(-c4cc(OC)c(OC)c(OC)c4)c3)CC2)c1 [Compound 3] | – | 49 | – | – | – |
| COc1ccc(N(Cc2ccnc(-c3cc(OC)c(OC)c(OC)c3)c2)C2CCN(Cc3ccnc(-c4cc(OC)c(OC)c(OC)c4)c3)CC2)cc1 [Compound 4] | 20 | 247 | suppressed | 247 | about 8 times |
| COc1cc(-c2cc(CN3CCC(N(C)Cc4ccnc(-c5cc(OC)c(OC)c(OC)c5)c4)CC3)ccn2)cc(OC)c1OC [Compound 1] | 80 | 66 | – | – | – |
